Laboratory results as given in patent publication US20250099596A1, “TETRAHYDRONAPHTHALENE COMPOUND, AND PREPARATION METHOD THEREFOR AND USE THEREOF IN MEDICINE” (Jiangsu Hengrui Pharmaceuticals Co., Ltd., priority 2021, published 2025).

Experiments:
MCF7 cells = assay: Inhibitory effects on MCF7 cell proliferation (CellTiter-Glo); format: cell-based; conditions: Homo sapiens, 144 h, 6 days incubation, read-out: IC50 (nM), inhibition of MCF7 cell proliferation
Procedure: (§1) MCF7 cells (TCHu74, National Collection of Authenticated Cell Cultures) were cultured in an MEM (GE Healthcare, SH30024.01) complete medium containing 10% fetal bovine serum. On day 1 of the experiment, MCF7 cells were seeded into a 96-well plate at a density of 3,000 cells/well using MEM containing 2% fetal bovine serum, with each well containing 135 μL of cell suspension. The plate was incubated in a 37° C., 5% CO2 cell incubator overnight. The next day, different concentrations of test compounds prepared in media were added at 15 μL/well. The final concentrations of the compounds were 9 concentration points obtained by 4-fold serial dilution from 1000 nM. A blank control containing 0.5% DMSO was set up. The plate was incubated in a 37° C., 5% CO2 cell incubator for 6 days. On day 8, the 96-well cell culture plate was taken out, and CellTiter-Glo® Luminescent Cell Viability Assay (Promega, G7573) was added at 75 μL/well. After the plate was left at room temperature for 10 min, luminescence signal readings were taken on a multilabel microplate reader (PerkinElmer, VICTOR 3). The IC50 values for the inhibitory activity of the compounds were calculated from the concentrations of the compounds and the luminescence signal readings using Graphpad Prism software.

MCF7/ERα Y537S cells = assay: Inhibitory activity on proliferation of ERα mutant-expressing MCF7 cells; format: cell-based; conditions: Homo sapiens, 144 h, 6 days incubation, CellTiter-Glo, read-out: IC50 (nM), inhibition of proliferation of ERα mutant-expressing MCF7 cells
Procedure: The objective of this experiment was to determine the inhibitory activity of the compounds of the present disclosure on the proliferation of ERα mutant-expressing MCF7 cells.
as §1, with “cells expressing the ERα Y537S mutant were constructed by lentiviral infection. MCF7/ERα Y537S cells” for “cells (TCHu74, National Collection of Authenticated Cell Cultures)”, “bovine serum and […] puromycin.” for “bovine serum.”, “experiment,” for “experiment, MCF7”, “135 µL” for “135 μL”, “75 µL/well.” for “75 μL/well.”

| SMILES | IC50 (MCF7 cells) [nM] | IC50 (MCF7/ERα Y537S cells) [nM] |
| --- | --- | --- |
| CC(C)[C@H]1CCc2cc(O)ccc2[C@H]1c1ccc(N2CCC(CN3CCN(c4ccc5c(c4)CN([C@H]4CCC(=O)NC4=O)C5=O)CC3)CC2)cc1 [Example 24, (S)-3-(5-(4-((1-(4-((1R,2R)-6-Hydroxy-2-isopropyl-1,2,3,4-tetrahydronaphthalen-1-yl)phenyl)piperidin-4-yl)methyl)piperazin-1-yl)-1-oxoisoindolin-2-yl)piperidine-2,6-dione] | 1.21 | 5.44 |
| C[C@H]1CCc2cc(O)ccc2[C@H]1c1ccc(N2CCC(CN3CCN(c4ccc5c(c4)CN([C@H]4CCC(=O)NC4=O)C5=O)CC3)CC2)cc1 [Example 27, (S)-3-(5-(4-((1-(4-((1R,2S)-6-Hydroxy-2-methyl-1,2,3,4-tetrahydronaphthalen-1-yl)phenyl)piperidin-4-yl)methyl)piperazin-1-yl)-1-oxoisoindolin-2-yl)piperidine-2,6-dione] | 13.4 | 44.6 |
| CC[C@H]1CCc2cc(O)ccc2[C@H]1c1ccc(N2CCC(CN3CCN(c4ccc5c(c4)CN([C@H]4CCC(=O)NC4=O)C5=O)CC3)CC2)cc1 [Example 28, (S)-3-(5-(4-((1-(4-((1R,2S)-6-Hydroxy-2-ethyl-1,2,3,4-tetrahydronaphthalen-1-yl)phenyl)piperidin-4-yl)methyl)piperazin-1-yl)-1-oxoisoindolin-2-yl)piperidine-2,6-dione] | 1.51 | 5.21 |
| CCC[C@H]1CCc2cc(O)ccc2[C@H]1c1ccc(N2CCC(CN3CCN(c4ccc5c(c4)CN([C@H]4CCC(=O)NC4=O)C5=O)CC3)CC2)cc1 [Example 29, (S)-3-(5-(4-((1-(4-((1R,2S)-6-Hydroxy-2-propyl-1,2,3,4-tetrahydronaphthalen-1-yl)phenyl)piperidin-4-yl)methyl)piperazin-1-yl)-1-oxoisoindolin-2-yl)piperidine-2,6-dione] | 0.78 | 3.62 |
| O=C1CC[C@H](N2Cc3cc(N4CCN(CC5CCN(c6ccc([C@@H]7c8ccc(O)cc8CC[C@@H]7Cc7ccccc7)cc6)CC5)CC4)ccc3C2=O)C(=O)N1 [Example 30, (S)-3-(5-(4-((1-(4-((1R,2R)-2-Benzyl-6-hydroxy-1,2,3,4-tetrahydronaphthalen-1-yl)phenyl)piperidin-4-yl)methyl)piperazin-1-yl)-1-oxoisoindolin-2-yl)piperidine-2,6-dione] | 3.02 | 12.7 |
| O=C1CC[C@H](N2Cc3cc(N4CCN(CC5CCN(c6ccc([C@@H]7c8ccc(O)cc8OC[C@@H]7C7CCC7)cc6)CC5)CC4)ccc3C2=O)C(=O)N1 [Example 32, (S)-3-(5-(4-((1-(4-((3R,4R)-3-Cyclobutyl-7-hydroxychroman-4-yl)phenyl)piperidin-4-yl)methyl)piperazin-1-yl)-1-oxoisoindolin-2-yl)piperidine-2,6-dione] | 8.34 | 28.8 |
| O=C1CC[C@H](N2Cc3cc(N4CCN(CC5CCN(c6ccc([C@@H]7c8ccc(O)cc8CC[C@@H]7CC7CCC7)cc6)CC5)CC4)ccc3C2=O)C(=O)N1 [Example 35, (S)-3-(5-(4-((1-(4-((1R,2R)-2-(Cyclobutylmethyl)-6-hydroxy-1,2,3,4-tetrahydronaphthalen-1-yl)phenyl)piperidin-4-yl)methyl)piperazin-1-yl)-1-oxoisoindolin-2-yl)piperidine-2,6-dione] | 3 | 8.48 |
| CC(C)C[C@H]1CCc2cc(O)ccc2[C@H]1c1ccc(N2CCC(CN3CCN(c4ccc5c(c4)CN([C@H]4CCC(=O)NC4=O)C5=O)CC3)CC2)c(F)c1 [Example 37, (S)-3-(5-(4-((1-(2-Fluoro-4-((1R,2R)-6-hydroxy-2-isobutyl-1,2,3,4-tetrahydronaphthalen-1-yl)phenyl)piperidin-4-yl)methyl)piperazin-1-yl)-1-oxoisoindolin-2-yl)piperidine-2,6-dione] | 1.46 | 5.27 |
| CCC(CC)C[C@H]1CCc2cc(O)ccc2[C@H]1c1ccc(N2CCC(CN3CCN(c4ccc5c(c4)CN([C@H]4CCC(=O)NC4=O)C5=O)CC3)CC2)cc1 [Example 38, (S)-3-(5-(4-((1-(4-((1R,2R)-6-Hydroxy-2-(2-ethylbutyl)-1,2,3,4-tetrahydronaphthalen-1-yl)phenyl)piperidin-4-yl)methyl)piperazin-1-yl)-1-oxoisoindolin-2-yl)piperidine-2,6-dione] | 4.64 | 13.8 |
| CC(C)(C)C[C@H]1CCc2cc(O)ccc2[C@H]1c1ccc(N2CCC(CN3CCN(c4ccc5c(c4)CN([C@H]4CCC(=O)NC4=O)C5=O)CC3)CC2)cc1 [Example 39, (S)-3-(5-(4-((1-(4-((1R,2R)-6-Hydroxy-2-neopentyl-1,2,3,4-tetrahydronaphthalen-1-yl)phenyl)piperidin-4-yl)methyl)piperazin-1-yl)-1-oxoisoindolin-2-yl)piperidine-2,6-dione] | 5.23 | 15.8 |
| CC(C)CC[C@H]1CCc2cc(O)ccc2[C@H]1c1ccc(N2CCC(CN3CCN(c4ccc5c(c4)CN([C@H]4CCC(=O)NC4=O)C5=O)CC3)CC2)cc1 [Example 40, (S)-3-(5-(4-((1-(4-((1R,2S)-6-Hydroxy-2-isopentyl-1,2,3,4-tetrahydronaphthalen-1-yl)phenyl)piperidin-4-yl)methyl)piperazin-1-yl)-1-oxoisoindolin-2-yl)piperidine-2,6-dione] | 3.17 | 8.89 |
| CC(C)C[C@H]1CCc2cc(O)ccc2[C@H]1c1ccc(N2CCC(CN3CCN(c4ccc5c(c4)CN([C@@H]4CCC(=O)NC4=O)C5=O)CC3)CC2)cc1 [Example 42, (R)-3-(5-(4-((1-(4-((1R,2R)-6-Hydroxy-2-isobutyl-1,2,3,4-tetrahydronaphthalen-1-yl)phenyl)piperidin-4-yl)methyl)piperazin-1-yl)-1-oxoisoindolin-2-yl)piperidine-2,6-dione] | 0.88 | 3.09 |
| O=C1CC[C@@H](N2Cc3cc(N4CCN(CC5CCN(c6ccc([C@@H]7c8ccc(O)cc8CC[C@@H]7C7CCOCC7)cc6F)CC5)CC4)ccc3C2=O)C(=O)N1 [Example 43, (R)-3-(5-(4-((1-(2-Fluoro-4-((1R,2R)-6-hydroxy-2-(tetrahydro-2H-pyran-4-yl)-1,2,3,4-tetrahydronaphthalen-1-yl)phenyl)piperidin-4-yl)methyl)piperazin-1-yl)-1-oxoisoindolin-2-yl)piperidine-2,6-dione] | 3.57 | 36.3 |
